# According to patent US20070225279A1, “Therapeutic combinations for the treatment of depression” (Wyeth, priority 2006, published 2007):
# Tests used:
# Male Swiss Webster mice [1] = assay: Tail suspension test; assay type: in vivo; details: for decrease in immobility time: cotreated 30 minutes prior to the test
# From the text: Compound 1, [drawing 11] was used to exemplify the effectiveness of compounds of the present invention in the tail suspension test. While not a direct model of depression, the tail suspension test is an assay that can evaluate antidepressant-like effects of drugs. […] Specifically, they decrease the amount of time the mice spend immobile after being hung upside down by their tails during the test. It is impossible to determine if a mouse is indeed depressed. However, the fact that clinically effective antidepressants reduce immobility lends predictive validity to the model. Animals
# Male Swiss Webster mice (Charles River) weighing 25-35 g were used throughout this study. They were housed in groups of five per cage in an AALAC-accredited facility that was maintained on a 12-h light dark cycle (lights on at 0600 h) and had free access to food and water. Experimental groups consisted of 12 mice, randomly assigned to treatment groups. All experiments were performed between 9:00 AM and noon in accordance to the Guide for the Care and Use of Laboratory Animals as adopted and promulgated by the National Institutes of Health (Pub. 85-23, 1985).
# Solutions of Compound 1 and paroxetine were freshly prepared; each dissolved in distilled water. All drugs were injected i.p. at a volume of 10 ml/kg body weight. Combination treatments were cotreated, 30 minutes prior to the test.
# The procedure followed in this study was a variant of the one originally described by Steru et al. (1985). 30 minutes following treatment, the mice were suspended upside down by the tail using adhesive laboratory tape (VWR International), to a flat metal bar connected to a strain gauge within a tail suspension chamber (Med Associates). The time spent immobile during a 6-minute test session was automatically recorded. 8 mice were simultaneously tested within separate chambers. Data collected were expressed as a mean of immobility time and statistical analysis was performed using a one-way ANOVA with least significant difference (LSD) post-hoc test.
# Male Swiss Webster mice [2] = details: general statement on clinically effective drugs; cited from earlier work
smiles,measurement,setting,value
"Fc1ccc([C@@H]2CCNC[C@H]2COc2ccc3c(c2)OCO3)cc1 (relative stereo) [paroxetine, trans-(−)-3-[(1,3-benzodioxol-5-yloxy)methyl]-4-(4-fluorophenyl)piperidine, reference compound]",decrease in immobility,"Male Swiss Webster mice [1]; 30 mg/kg paroxetine alone, i.p., 30 minutes prior to the test, ns",18%
c1cc2c3c(c1)[C@H]1CCC[C@H]1N3CCNC2 [Compound 1],decrease in immobility time,"Male Swiss Webster mice [1]; 1 mg/kg Compound 1 in combination with 30 mg/kg paroxetine, i.p.",24%
same,decrease in immobility time,"Male Swiss Webster mice [1]; 3 mg/kg Compound 1 in combination with 30 mg/kg paroxetine, i.p.",35%
same,antidepressant-like effect (immobility time) in tail suspension test,"Male Swiss Webster mice [1]; Compound 1 alone, 1 or 3 mg/kg i.p., 30 minutes prior to the test, 6-minute session",Neither dose of Compound 1 (1 or 3 mg/kg) produced an antidepressant-like effect alone
"CNCCC(Oc1ccc(C(F)(F)F)cc1)c1ccccc1 (centres unmarked) [fluoxetine, N-methyl-3-(p-trifluoromethylphenoxy)-3-phenylpropylamine]",effectiveness in tail suspension assay (decrease of time spent immobile),Male Swiss Webster mice [2],effective in this assay
